Literature values in patent publication US7087769B1, “Process for the preparation of cationic surfactants” (Laboratorios Miret, S.A., priority 2000, dated 2006).
Where two headings read alike, the source gives them in different places.

Columns and labels:
Escherichia coli = conditions: EP-A-0 749 960
Staphylococcus aureus = conditions: EP-A-0 749 960
Pseudomonas aeruginosa = conditions: EP-A-0 749 960
Candida albicans = conditions: EP-A-0 749 960
Aspergillus niger = conditions: EP-A-0 749 960
[1] = system: Bordetella bronchiseptica
[2] = system: Klebsiella pneumoniae spp. pneumoniae
[3] = system: Bacillus cereus spp. mycoide
[4] = animals
[5] = human beings

**Q.** With `CCCCCCCCCCCC(=O)N[C@@H](CCCNC(=N)N)C(=O)OCC.Cl` [ethyl ester of N^α-lauroyl-L-arginine monohydrochloride] as the compound, how does the efficacy against microorganism (Escherichia coli) read?
**A.** The efficacy against microorganism was “proven”.

**Q.** And the efficacy against microorganism (Staphylococcus aureus)?
**A.** The efficacy against microorganism was “proven”.

**Q.** And the efficacy against microorganism (Pseudomonas aeruginosa)?
**A.** The efficacy against microorganism was “proven”.

**Q.** And the efficacy against microorganism (Candida albicans)?
**A.** The efficacy against microorganism was “proven”.

**Q.** What about the efficacy against microorganism (Aspergillus niger) of the same compound?
**A.** Its efficacy against microorganism is “proven”.

**Q.** And the efficacy against bacteria (Alcaligenes faecalis)?
**A.** The efficacy against bacteria was “efficaceous”.

**Q.** And the efficacy against bacteria [1]?
**A.** Its efficacy against bacteria is “efficaceous”.

**Q.** And the efficacy against bacteria (Citrobacter freundii)?
**A.** The efficacy against bacteria was “efficaceous”.

**Q.** And the efficacy against bacteria (Enterobacter aerogenes)?
**A.** The efficacy against bacteria was “efficaceous”.

**Q.** What about the efficacy against bacteria [2] of the same compound?
**A.** The efficacy against bacteria was “efficaceous”.

**Q.** And the efficacy against bacteria (Proteus mirabilis)?
**A.** Its efficacy against bacteria is “efficaceous”.

**Q.** And the efficacy against bacteria (Salmonelly thyphimurium)?
**A.** The efficacy against bacteria was “efficaceous”.

**Q.** What about the efficacy against bacteria (Serratia marcescens) of the same compound?
**A.** Its efficacy against bacteria is “efficaceous”.

**Q.** And the efficacy against bacteria (Bacillus subtilus)?
**A.** Its efficacy against bacteria is “efficaceous”.

**Q.** And the efficacy against bacteria [3]?
**A.** The efficacy against bacteria was “efficaceous”.

**Q.** And the efficacy against bacteria (Micrococcus luteus)?
**A.** Its efficacy against bacteria is “efficaceous”.

**Q.** And the efficacy against bacteria (Arthrobacter oxydans)?
**A.** Its efficacy against bacteria is “efficaceous”.

**Q.** What about the efficacy against bacteria (Mycobacterium phlei) of the same compound?
**A.** Its efficacy against bacteria is “efficaceous”.

**Q.** And the efficacy against bacteria (Listeria monocytogenes)?
**A.** Its efficacy against bacteria is “efficaceous”.

**Q.** And the efficacy against yeasts (Rhodotorula rubra)?
**A.** Its efficacy against yeasts is “efficaceous”.

**Q.** What about the efficacy against yeasts (Saccharomyces cerevisiae) of the same compound?
**A.** The efficacy against yeasts was “efficaceous”.

**Q.** And the efficacy against yeasts (Zygosaccharomyces rouxii)?
**A.** Its efficacy against yeasts is “efficaceous”.

**Q.** What about the efficacy against fungi (Mucor rouxii) of the same compound?
**A.** Its efficacy against fungi is “efficaceous”.

**Q.** And the efficacy against fungi (Aureobasidium pullulans)?
**A.** The efficacy against fungi was “efficaceous”.

**Q.** What about the efficacy against fungi (Chaetonium globosum) of the same compound?
**A.** Its efficacy against fungi is “efficaceous”.

**Q.** And the efficacy against fungi (Gliocadium virens)?
**A.** Its efficacy against fungi is “efficaceous”.

**Q.** What about the efficacy against fungi (Penicillium chrysogenum) of the same compound?
**A.** The efficacy against fungi was “efficaceous”.

**Q.** And the efficacy against fungi (Penicillium funiculosum)?
**A.** The efficacy against fungi was “efficaceous”.

**Q.** What about the tolerability [4] of the same compound?
**A.** Its tolerability is “well tolerated”.

**Q.** And the tolerability [5]?
**A.** The tolerability was “well tolerated”.
